Results from a melting point compilation (Tetko et al.; mined from patent text by program, amines drawn as free bases though some values may be those of a salt).

Row | SMILES | melting point [°C]
1 | CCOC(=O)C(=O)C1C(=O)c2cccc3cccc1c23 (stereo not given) | 101 to 103
2 | CCOC(=O)c1cc2c(Br)c(Br)oc2nc1C(=O)OCC | 96 to 98
3 | O=[N+]([O-])c1ccc2c(c1)NCC(C(F)F)(C(F)F)O2 | 150 to 152
4 | CC(=O)N1CC(NC(=O)Nc2cccc(C)c2)C(=O)N(CC(=O)c2ccccc2C)c2ccccc21 (stereo not given) | 215 to 217
5 | N#CC(C(N)=S)=C(N)N1CCCC1 | 164
6 | Cc1cc(Cl)cc(C(=NCCC(=O)O)c2ccc(Cl)cc2)c1O | 138
7 | CC[C@H]1[C@@H](O)[C@H](C)C(=O)N1c1ccc(C#N)c(C(F)(F)F)c1 | 113 to 119
8 | CSc1ccc(-c2cnn(-c3ccc(F)cc3)c(=O)c2OC(C)C)cc1 | 135 to 137
9 | CCC(CCCN)Nc1cc(OC)c(OC)c2c(C)ccnc12 (stereo not given) | 136 to 137
10 | O=C(CBr)NC1(F)C=CC=CC1C(=O)c1ccccc1 (stereo not given) | 120 to 121
11 | COc1ccc(C2=NC(NC(=O)Nc3ccc(C(=O)c4ccccc4)cc3)c3nnc(C)n3-c3ccccc32)cc1 (stereo not given) | 225
12 | CCOC(=O)C(=O)CCc1ccc(OC)c(OC)c1 | 85 to 87
13 | Cc1nc2ncnn2c2c1CCN2CC(C)C | 143 to 145
14 | CCCOc1cc(OC)c2c(c1)C(=O)c1cccc(OC(C)C)c1-2 | 114 to 116
15 | N#CCc1cnc(Cl)c(Cl)c1 | 72 to 75
16 | CC(=O)CC(=O)Nc1ccc(N)c([N+](=O)[O-])c1 | 146 to 147
17 | CC(=O)NC[C@H]1CN(c2ccc(C3(F)CCNCC3)c(F)c2)C(=O)O1 | 163 to 165
18 | O=C(Nc1ccccc1)Nc1[nH]c2ccccc2c1-c1ccccc1 | 210 to 212
19 | COC(=O)C1Cc2c([nH]c3ccccc23)CN1 (stereo not given) | 164 to 165
20 | CCCn1nc(C(C)(F)F)nc1Cc1ccc(-c2ccccc2-c2nnn[nH]2)nc1 | 200
21 | CN(CC(=O)N[C@@H](CCC(N)=O)C(N)=O)C(=O)OCc1ccccc1 | 186 to 196
22 | COC(=O)c1nnn(Cc2ccccc2F)c1C(=O)OC | 203 to 205
23 | Cc1cc(-c2nnn(C)n2)cc(C)c1OCCCC(O)c1nccn1C (stereo not given) | 151 to 154

Row | SMILES | melting point [°C]
24 | O=S(=O)(O)c1ccc(O)c(O)c1 | 254 to 255
25 | Cc1nn2c3c1c(=O)[nH]c(=O)n3CC=C2c1cc(Cl)ccc1Cl | 205 to 209
26 | O=C(NC12CC3CC(CC(C3)C1)C2)c1ncn(-c2ccccc2)c1Br | 229 to 232
27 | CCc1c(C(=O)Cl)cnn1-c1ccc(Cl)cc1 | 105 to 107
28 | CC(C#Cc1ccc(C(=O)O)c(O)c1)c1ccc2c(c1)C(C)(C)CCC2(C)C (stereo not given) | 191 to 192
29 | Clc1cccc(Cl)c1Cc1c[nH]cn1 | 142 to 145
30 | CCOC(=O)NC(=CC(=O)[C@H](Cc1ccccc1)N(Cc1ccccc1)Cc1ccccc1)Cc1ccccc1 | 91 to 93
31 | CCOC(=O)Cc1c(-c2ccccc2)c2cc(COC(C)=O)c(COC(C)=O)cc2oc1=O | 95 to 96
32 | CNC(=O)Cc1ccc(CC(=O)O)cc1 | 102 to 104
33 | Nc1nc2cc(OCc3ccccc3)ccc2c2c1nc(CCCCNC(=O)Nc1ccccc1)n2CCOc1ccccc1 | 186 to 187
34 | O=c1oc2c3ccccc3ccc2c2occc12 | 198 to 200
35 | CC(c1nc2ccccc2c(=O)n1-c1ccc(F)cc1)N(Cc1cccnc1)C(=O)Cc1ccc(C(F)(F)F)cc1 (stereo not given) | 167
36 | CCOC(OCC)c1nc(C2CC2)nc(N)c1Cl | 104 to 110
37 | CC1(C)C2CCC1(C(=O)P(=O)(c1ccccc1)c1ccccc1)C(=O)C2=O (stereo not given) | 92.1
38 | CN1CC(c2ccc(Cl)cc2)C(=O)C(c2cccc(C(F)(F)F)c2)C1 (stereo not given) | 116
39 | CC(C)n1nc(-c2sc(N)nc2-c2ccccc2F)ccc1=O | 233 to 235
40 | COC(=O)c1c(SCc2ccc(OC)cc2)nc(C)n1Cc1cc2c(cc1Cl)OCO2 | 169
41 | O=C1c2c(Cl)cccc2-n2cnc(-c3noc(CCl)n3)c2[C@@H]2CCN12 | 211 to 212
42 | COCC(=O)N(c1c(C)ccc(CC(=O)Nc2cc(Cl)cc(Cl)c2)c1C)C(C)C(=O)OC (stereo not given) | 126 to 128
43 | O=C1O[C@@H]2C[C@@]1(O)c1cc(-c3ccccc3)sc1[C@H]2O | 168 to 173
44 | Cc1nc(C)n(CCOCC2=C(C(=O)OC(C)C)C(c3ccccc3Cl)C(C(=O)Nc3ccccn3)=CN2)c1C (stereo not given) | 180 to 182
45 | CC(=O)N(C)C(CCl)C(=O)O (stereo not given) | 104

The next lines start with the values.

Row | melting point [°C] | SMILES
46 | 59.5 | CC(C)ON=C(C(=O)O)c1ccccc1
47 | 69 to 71 | CCC(C#N)Oc1cccc([N+](=O)[O-])c1Cl (stereo not given)
48 | > 310 | COc1ccc(-c2c(C(N)=O)n(C)c(=O)c3ncccc23)cc1
49 | 191 to 193 | COc1cc2c(cc1OC)-c1c(-c3nc(-c4ccccc4)no3)c(-c3cc(C)c(O)c(C)c3)c(C)n1CC2
50 | 81 to 82.4 | O=C(Cc1ccccc1)c1ccc(OCC2CO2)cc1 (stereo not given)
51 | 289 | O=C(c1ccc2nc[nH]c(=O)c2c1)c1ncc2ccccn12
52 | 282 to 284 | N#Cc1c(N)ncc2c1-c1ccccc1C(c1ccc(Cl)cc1Cl)C2 (stereo not given)
53 | 125 to 127 | c1ccc(-c2nc3ncccc3o2)cc1
54 | 194 to 204 | CS(=O)c1onc(-c2ccccc2)c1-c1ccc(S(N)(=O)=O)cc1 (stereo not given)
55 | 209 to 210 | CC(C)S(=O)(=O)n1c(N)nc2ccc(C(O)(CC(=O)N(C)C)c3ccccc3)cc21 (stereo not given)
56 | 185 to 186 | COC(=O)c1ccc(C(=O)O)c(NC(=O)C(F)(F)F)c1
57 | 107 | CCOC(=O)C(=CC(C)c1ccc(Br)cc1)CC(=O)O (stereo not given)
58 | 282 to 285 | Cn1c(C(F)(F)F)cc(=O)n(-c2cc(N(S(C)(=O)=O)S(C)(=O)=O)c(Cl)cc2F)c1=O
59 | 233 to 234 | O=C(Nc1cccnc1)N1CCN(c2nccc(-c3ccc(F)cc3)n2)CC1
60 | 133 to 134 | OCC(O)CNCC(O)C(O)C(O)C(O)CO (stereo not given)
61 | 124 to 126 | CC(=O)c1ccc(OCCCOc2cc(N)c(C)cc2Br)c(CCC(F)(F)F)c1O
62 | 133 to 136 | COc1ccccc1-c1ccc(-c2ccc(C(=O)O)cc2)cc1-c1ccc2c(c1)C(C)(C)CCC2(C)C
63 | 58 to 62 | O=C(Nc1ccccn1)C(CC1CCCC1)c1ccc(S(=O)(=O)C(F)(F)F)cc1 (stereo not given)
64 | 160 | CN(Cc1cccc(-c2ccc(CC3SC(=O)NC3=O)cc2)c1)C(=O)c1ccno1 (stereo not given)
65 | 134 to 137 | CC(C)CCN1C(=O)C2(COc3cc4c(cc32)OCCO4)c2ccccc21 (stereo not given)
66 | 113 to 116 | CCOP(=O)(CC(=O)Nc1cc2c(Nc3ccc(OCc4ccccn4)c(Cl)c3)ncnc2cn1)OCC
67 | 202 to 203 | COc1ccc2c(c1)C(=O)CC1(CCN(c3cc(=O)n(C)c(=O)n3C)CC1)O2
68 | 75 to 76 | Cc1c(C)c2c(c(C)c1N)OC(C)(C)C2Cc1ccccc1 (stereo not given)
69 | 170 to 171 | CN1CCN(c2cccc(-c3cnn4c(N)c(Cc5cccc(Br)c5)cnc34)c2)CC1
70 | 78 to 80 | CCOc1c(NC(C)(C)CC)c(=O)c1=O
71 | 110 to 114 | O=C(O)c1cccc(-c2ccc(Cl)c3cc(Cc4cc(F)cc(Cl)c4)sc23)c1
72 | 119 to 121 | COC(=O)CCC1=NC=C(c2ccc3c(c2)NC(=O)CO3)C(c2ccccc2)S1 (stereo not given)
73 | 230 to 236 | Cn1cc(C(=O)NCc2ccc(Cl)cc2)c(=O)c2cc(CN3CCOCC3)sc21

Row | melting point [°C] | SMILES
74 | 100 to 104 | CCC1CCCCN1C(=O)C=Cc1c(-c2cccc(Cl)c2)nn2ccccc12 (stereo not given)
75 | 54 to 55 | C=CCN(CC=C)CCCCC(=O)c1ccc2c(c1)Cc1cc(C(=O)CCCCN(CC=C)CC=C)ccc1O2
76 | 59 to 62 | COc1cc(OC)cc(C2=NC(CO)Cc3cc(OC)c(OC)cc32)c1 (stereo not given)
77 | 305 to 307 | CCOC(=O)c1cc(O)cc2nc(-c3ccc(O)cc3)oc12
78 | 227 to 228 | C#CCn1c(-c2cc(Cl)nc(Cl)c2)nc(O)c(OC)c1=O
79 | 169 to 171 | CN1N=C(c2ccc(F)cc2)c2cc(F)ccc2CS1(=O)=O
80 | 130 to 133 | Cc1cc(C(O)(C(F)(F)F)C(F)(F)F)cc(C)c1NCCCN
81 | 75.7 to 116 | O=C(N[C@H]1CN(C(=O)NS(=O)(=O)N2CCN(NC(=O)OCc3ccccc3)C2=O)C1=O)OCc1ccccc1
82 | 182 to 184 | O=C(O)CNC(=O)c1nnc2ccc(NCCCN3CCC(OC(c4ccccc4)c4ccccc4)CC3)nn12
83 | 143 | CC(C)c1c(Br)c(Br)c(-c2ccc(F)cc2)n1CC[C@H]1C[C@H](O)CC(=O)O1 (relative stereo)
84 | 91 to 97 | CN1C(=O)C(c2ccc(OC(F)(F)F)c(F)c2)(c2ccc(F)c(-c3cncc(F)c3)c2)N=C1N (stereo not given)
85 | 180 | Cc1nc2c3c(ccn2c1C)[C@@H](O)[C@@](C)(O)[C@@H](c1ccccc1)N3
86 | 182 to 184 | CC(=O)CNC1(c2ccc(OC(C)=O)cc2)Sc2ccccc2N(C)C1=O (stereo not given)
87 | 88 to 89 | Clc1cc(Cl)cc(C2=NOCCS2)c1
88 | 143 to 145 | N#CC1(c2ccc(Cl)c(Cl)c2)CC(Cl)=C(Cl)N1CCO (stereo not given)
89 | 221 to 222 | O=C(Nc1ccc(C(F)(F)F)cc1)c1ccc(C=NO)cc1
90 | 86 to 88 | CCC(CC)N(Cc1ccc(C(=O)O)cc1)S(=O)(=O)c1ccc(C)cc1
91 | 77 | C#Cc1c(OC)nc(C)nc1C(F)(F)F
92 | 207 | COc1cc(Nc2nccc(-c3nc(C)c(C)s3)n2)cc(OC)c1OC
93 | 85 to 87 | Cc1n[nH]c(C)c1Oc1cc(Cl)cc(Cl)c1
94 | 165 to 167 | CCOC(=O)c1sc(-n2cn[nH]c2=O)nc1C
95 | 74 to 75 | NC(=O)CCC(O)c1ccccc1 (stereo not given)
96 | 166 to 167 | CN(C)c1ccc2c(c1)C(C)(C)C1(C=Cc3cc([N+](=O)[O-])ccc3S1)N2C (stereo not given)
97 | 86 to 88 | NCC(O)C1COc2ccccc2O1 (stereo not given)
98 | 93 to 94.5 | CC(SCCS(=O)(=O)N(C)C)c1ccc2c(c1)OCO2 (stereo not given)
99 | 96 to 98 | O=C(OCc1ccccc1)[C@@H]1CCCN1C(=O)CNC1Cc2ccccc2C1
100 | 167 to 169 | CC(C)(C)OC(=O)[C@@H](Cc1ccccc1)NC(=O)C1CN(c2ccc(C(N)=S)cc2)C(=O)O1 (stereo not given in full)
